{"source": "patent EP2444091B1", "about": "“USE OF T[…] MELIA AZEDARACH EXTRACTS FOR PREVENTING OR TREATING DEMENTIA” (Ildong Pharm Co., Ltd., priority 2009, dated 2010)", "key": {"[1]": {"system": "Aβ40", "assay": "Aβ40 quantification in rat serum before/after oral administration", "type": "in vivo", "details": "5mg/kg oral, blood after two hours", "experimental": "Before administration of toosendanin, blood was secured. Then, toosendanin suspended in 20% ethyl alcohol was orally administered in doses of 5 and 50mg/kg. After two hours, the blood was collected, and the concentration change of Aβ within the blood before/after administration was measured. The collected blood was centrifuged (16,000×g, 20 minutes, 4°C), and Aβ40 within the collected serum was quantified by using an Aβ40 quantitative analysis kit (Mouse/Rat Amyloidβ (1-40) High Specific Assay Kit, IBL, Japan)."}, "[2]": {"system": "APPα and APPβ (APP metabolites)", "assay": "APPα and APPβ production in culture medium by western blot, BA-3 cell line overexpressing BACE1 and APP695", "type": "cell-based", "experimental": "A HEK293-derived BA-3 cell line overexpressing BACE1(β-secretase) and APP695 was plated on 6-well plate by using DMEM (Dulbecco's Modified Eagle's Medium) including 10% fetal bovin serum (FBS) in such a manner that it occupied 80% or more of the area in each well, and then was cultured for 1 day. After the removal of the culture medium, free DMEM (not including fetal bovine serum) was heated to 37°C, and added in an amount of 0.9ml to each well. Then, toosendanin or a toosendan fructus fraction extracted with each solvent was diluted to an appropriate concentration by 0.1ml free DMEM, and the cell line was treated with these materials, and cultured for 24 hours. 0.2ml of the culture medium treated with each test sample was collected, and subjected to electrophoresis by 8% SDS-PAGE (polyacrylamide gel electrophoresis). Then, AB1560(monoclonal) and Rb53(polyclonal) antibodies (antibodies against APPα and APPβ) were used to measure the amounts of APPα and APPβ within the culture medium through western blotting.\nExtracts (ethyl alcohol, methanol, ethyl acetate, and 90% methanol) of meliae cortex (bark of chinaberry) were obtained under the same organic solvent extraction condition of toosendan fructus. Then, their effects on APPβ production reduction were tested.\nOn the toosendan fructus ethyl alcohol extract obtained from Example 9-1, an APPβ production reducing effect, an APPα production promoting effect, and an Aβ production inhibiting effect were measured in the same manner as described in Example 5."}, "[3]": {"details": "concentration of 12.5nM or less"}}}
{"smiles": "CC(=O)O[C@@H]1C[C@H](O)[C@@]23CO[C@@H](O)[C@]1(C)[C@@H]2C[C@@H](O)[C@]1(C)[C@@H]3C(=O)[C@H](OC(C)=O)[C@@]2(C)[C@H](c3ccoc3)C[C@H]3O[C@]321", "note": "[toosendanin]", "values": [{"measurement": "inhibition of Aβ40 in serum", "setting": "[1]", "result": "≥ 85", "unit": "%"}, {"measurement": "production of APPα with respect to a non-treated group", "setting": "[2]; at 0.8uM, 24 hours", "result": 141.5, "unit": "%"}, {"measurement": "production of APPβ with respect to a non-treated group", "setting": "[2]; at 0.8uM, 24 hours", "result": 17.8, "unit": "%"}, {"measurement": "production of APPα", "setting": "[2]; [3]", "result": "promoting the production of APPα"}, {"measurement": "production of APPβ", "setting": "[2]; [3]", "result": "inhibited the production of APPβ"}]}
